Laboratory results: patent publication US9315490B2, “2,5-substituted pyrimidines” (Grünenthal GmbH, priority 2014, dated 2016)

How the values were obtained:
human PDE4B1 = target: T1, human PDE4B1 (Homo sapiens, UniProt Q07343); experiment: TR-FRET assay using the LANCE Ultra cAMP kit to determine the activity of hPDE4B1; type: biochemical; details: read-out: Inhibition in % (inhibition of PDE4B); for inhibition at 1 µM: test concentration 1 μM
T1 construct: host or cells: Sf9 cells
In short: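 Sf9-expressed recombinant human PDE4B1 (0.96 U) hydrolyses 500 nM cAMP for 30 minutes at room temperature in 50 mM Tris-HCl, 50 mM MgCl2, 5 mM DTT, pH 8.5. The reaction is stopped with IBMX, and residual cAMP is measured by TR-FRET (665/620 ratio). IC50 comes from ten concentrations.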

T1 sequence (Q07343 whole entry): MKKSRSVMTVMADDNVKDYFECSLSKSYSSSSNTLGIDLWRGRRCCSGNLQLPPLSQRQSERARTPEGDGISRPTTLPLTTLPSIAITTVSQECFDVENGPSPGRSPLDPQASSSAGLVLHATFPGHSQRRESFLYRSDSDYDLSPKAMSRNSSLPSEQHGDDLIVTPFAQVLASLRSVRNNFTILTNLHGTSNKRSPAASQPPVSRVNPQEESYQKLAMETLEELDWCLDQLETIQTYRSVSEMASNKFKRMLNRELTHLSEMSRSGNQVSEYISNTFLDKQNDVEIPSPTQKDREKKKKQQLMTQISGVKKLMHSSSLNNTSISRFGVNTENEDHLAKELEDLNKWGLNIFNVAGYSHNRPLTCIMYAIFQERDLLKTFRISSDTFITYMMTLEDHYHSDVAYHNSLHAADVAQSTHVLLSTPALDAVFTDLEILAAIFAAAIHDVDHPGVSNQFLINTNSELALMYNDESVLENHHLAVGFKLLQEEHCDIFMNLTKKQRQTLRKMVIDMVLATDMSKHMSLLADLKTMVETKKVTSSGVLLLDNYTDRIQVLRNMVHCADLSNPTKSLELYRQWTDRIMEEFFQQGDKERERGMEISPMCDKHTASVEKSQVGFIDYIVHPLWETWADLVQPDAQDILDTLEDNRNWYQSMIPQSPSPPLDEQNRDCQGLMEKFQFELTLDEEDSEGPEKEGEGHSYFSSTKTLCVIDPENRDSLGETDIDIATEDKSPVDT

Row | inhibition at 10 µM (human PDE4B1; test concentration 10 μM (marked in cell)) | melting point | inhibition at 1 µM (human PDE4B1) | SMILES
1 | 97% | 141 to 144 °C | – | C[S+]([O-])c1cn(-c2ncc(-c3ccccc3F)cn2)c2cc(C(=O)N3CC4CCC3CN4)ccc12 (centres unmarked) [Example 347, 2,5-Diazabicyclo[2.2.2]octan-2-yl(1-(5-(2-fluorophenyl)pyrimidin-2-yl)-3-(methylsulfinyl)-1H-indol-6-yl)methanone]
2 | – | 177 to 181 °C | 71% | O=C(c1ccc2c(C3CC3)cn(-c3ncc(-c4ccccc4F)cn3)c2c1)N1CCOCC1 [Example 354, (3-Cyclopropyl-1-(5-(2-fluorophenyl)pyrimidin-2-yl)-1H-indol-6-yl)(morpholino) methanone]
3 | – | 122 to 126 °C | 87% | CNCCN(C)C(=O)c1ccc2c([S+](C)[O-])cn(-c3ncc(-c4ccccc4F)cn3)c2c1 (centres unmarked) [Example 346, 1-(5-(2-Fluorophenyl)pyrimidin-2-yl)-N-methyl-N-(2-(methylamino)ethyl)-3-(methylsulfinyl)-1H-indole-6-carboxamide]

More lines, now with the values behind:

Row | SMILES | inhibition at 10 µM (human PDE4B1; test concentration 10 μM (marked in cell)) | melting point | inhibition at 1 µM (human PDE4B1)
4 | C[S+]([O-])c1cn(-c2ncc(-c3cc(C#N)cs3)cn2)c2cc(C(=O)N3CCOCC3)ccc12 (centres unmarked) [Example 195, 5-(2-(3-(Methylsulfinyl)-6-(morpholine-4-carbonyl)-1H-indol-1-yl)pyrimidin-5-yl)thiophene-3-carbonitrile] | – | 253 to 256 °C | 95%
5 | C[S+]([O-])c1cn(-c2ncc(-c3nc(C#N)cs3)cn2)c2cc(C(=O)N3CCOCC3)ccc12 (centres unmarked) [Example 203, 2-(2-(3-(Methylsulfinyl)-6-(morpholine-4-carbonyl)-1H-indol-1-yl)pyrimidin-5-yl)thiazole-4-carbonitrile] | – | 273 to 276 °C | 67%
6 | Cc1cnc(-c2cnc(-n3cc([S+](C)[O-])c4ccc(C(=O)N5CCOCC5)cc43)nc2)s1 (centres unmarked) [Example 206, (3-(Methylsulfinyl)-1-(5-(5-methylthiazol-2-yl)pyrimidin-2-yl)-1H-indol-6-yl)(morpholino)methanone] | – | 257 to 260 °C | 85%
7 | C[S+]([O-])c1cn(-c2ncc(-c3ccccc3F)cn2)c2cc(C(=O)N3C4CCC3CNC4)ccc12 (centres unmarked) [Example 348, 3,8-Diazabicyclo[3.2.1]octan-8-yl(1-(5-(2-fluorophenyl)pyrimidin-2-yl)-3-(methylsulfinyl)-1H-indol-6-yl)methanone] | – | 237 to 240 °C | 99%
8 | Cc1csc(-c2cnc(-n3cc([S+](C)[O-])c4ccc(C(=O)N5CCOCC5)cc43)nc2)n1 (centres unmarked) [Example 205, (3-(Methylsulfinyl)-1-(5-(4-methylthiazol-2-yl)pyrimidin-2-yl)-1H-indol-6-yl)(morpholino)methanone] | – | 247 to 249 °C | 93%
9 | C[S+]([O-])c1cn(-c2ncc(-c3cc(C(N)=O)cs3)cn2)c2cc(C(=O)N3CCOCC3)ccc12 (centres unmarked) [Example 196, 5-(2-(3-(Methylsulfinyl)-6-(morpholine-4-carbonyl)-1H-indol-1-yl)pyrimidin-5-yl)thiophene-3-carboxamide] | – | 302 to 305 °C | 96%
10 | C[S+]([O-])c1cn(-c2ncc(-c3ncc(C(N)=O)s3)cn2)c2cc(C(=O)N3CCOCC3)ccc12 (centres unmarked) [Example 208, 2-(2-(3-(Methylsulfinyl)-6-(morpholine-4-carbonyl)-1H-indol-1-yl)pyrimidin-5-yl)thiazole-5-carboxamide] | – | 286 to 289 °C | 82%
